Reference: patent publication US20230272465A1, “Systems and Methods to Enhance RNA Transcription and Uses Thereof” (The Board of Trustees of the Leland Stanford Junior …, priority 2020, published 2023)
“Also recorded” adds a separate entry of the source.

Legend:
Format in all cases: biochemical
SP6 RNA polymerase = biological target: T1, SP6 RNA polymerase (Enterobacteria phage SP6, UniProt P06221); assay: Real-time monitoring of SP6 RNA polymerase transcription reaction; settings: FIG. 1B
T1 sequence (P06221 1-874): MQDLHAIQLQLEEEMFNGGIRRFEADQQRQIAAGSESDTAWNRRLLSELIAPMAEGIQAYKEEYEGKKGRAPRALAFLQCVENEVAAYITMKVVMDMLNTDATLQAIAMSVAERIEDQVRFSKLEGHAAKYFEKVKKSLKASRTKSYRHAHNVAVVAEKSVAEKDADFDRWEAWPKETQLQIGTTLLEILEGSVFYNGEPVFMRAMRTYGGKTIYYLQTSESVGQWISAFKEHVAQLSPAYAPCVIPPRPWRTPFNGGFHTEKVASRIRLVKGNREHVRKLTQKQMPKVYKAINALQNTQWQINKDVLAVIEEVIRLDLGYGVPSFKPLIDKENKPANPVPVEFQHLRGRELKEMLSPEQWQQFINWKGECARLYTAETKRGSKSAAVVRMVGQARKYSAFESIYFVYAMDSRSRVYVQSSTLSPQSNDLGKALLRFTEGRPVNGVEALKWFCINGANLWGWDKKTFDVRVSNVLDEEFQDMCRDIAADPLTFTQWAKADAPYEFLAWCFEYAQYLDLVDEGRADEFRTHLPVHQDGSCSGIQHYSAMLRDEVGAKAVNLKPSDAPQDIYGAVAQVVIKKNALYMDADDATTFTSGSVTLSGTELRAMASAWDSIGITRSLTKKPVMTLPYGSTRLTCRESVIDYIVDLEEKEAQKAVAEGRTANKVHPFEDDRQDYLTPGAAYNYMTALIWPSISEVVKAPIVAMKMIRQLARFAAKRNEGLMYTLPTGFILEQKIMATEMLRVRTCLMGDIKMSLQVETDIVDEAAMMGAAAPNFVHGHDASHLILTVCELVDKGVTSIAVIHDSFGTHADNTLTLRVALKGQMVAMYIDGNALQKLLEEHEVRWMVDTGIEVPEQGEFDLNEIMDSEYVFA
Method: Turning to FIGS. 1A-1B, exemplary data of RNA yield measured from real time monitoring of RNA transcription reactions in accordance with certain embodiments are illustrated. In particular, FIG. 1A illustrates exemplary T7 RNA polymerase transcription reaction embodiments using 0.1 mM, 1 mM, and 10 mM concentrations of VRC against a 0 mM control.
However, FIG. 1B illustrates exemplary SP6 RNA polymerase transcription reaction embodiments using 0.1 mM, 1 mM, and 10 mM concentrations of VRC against a 0 mM control.

T7 RNA polymerase [1] = biological target: T2, T7 RNA polymerase (Escherichia phage T7, UniProt P00573); assay: Gel electrophoresis of T7 transcription reaction products; settings: 0.1 mM, 1 mM, 10 mM VRC versus 0 mM control; FIG. 3
T2 sequence (P00573 whole entry): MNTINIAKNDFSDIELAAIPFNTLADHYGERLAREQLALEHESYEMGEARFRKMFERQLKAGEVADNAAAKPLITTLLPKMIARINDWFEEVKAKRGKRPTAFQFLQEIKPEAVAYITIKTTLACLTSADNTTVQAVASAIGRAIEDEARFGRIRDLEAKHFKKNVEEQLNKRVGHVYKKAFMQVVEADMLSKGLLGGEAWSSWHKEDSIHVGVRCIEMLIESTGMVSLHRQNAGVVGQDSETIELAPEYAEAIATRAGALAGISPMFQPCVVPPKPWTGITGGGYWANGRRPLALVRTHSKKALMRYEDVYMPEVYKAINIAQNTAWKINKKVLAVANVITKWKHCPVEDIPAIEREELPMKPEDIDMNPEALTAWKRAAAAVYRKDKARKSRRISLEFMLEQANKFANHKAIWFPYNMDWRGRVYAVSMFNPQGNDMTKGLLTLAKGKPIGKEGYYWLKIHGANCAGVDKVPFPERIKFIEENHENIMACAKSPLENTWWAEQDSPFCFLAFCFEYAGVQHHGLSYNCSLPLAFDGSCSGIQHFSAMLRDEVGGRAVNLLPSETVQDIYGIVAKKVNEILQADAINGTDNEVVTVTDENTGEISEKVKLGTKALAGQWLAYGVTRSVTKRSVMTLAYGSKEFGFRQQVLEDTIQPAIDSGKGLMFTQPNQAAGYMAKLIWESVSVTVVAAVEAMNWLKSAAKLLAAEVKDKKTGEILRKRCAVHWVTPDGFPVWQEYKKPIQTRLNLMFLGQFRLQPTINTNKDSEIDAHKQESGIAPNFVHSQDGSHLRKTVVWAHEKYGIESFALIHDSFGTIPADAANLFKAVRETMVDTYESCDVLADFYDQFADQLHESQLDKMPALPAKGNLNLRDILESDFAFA
Method: Methods: A series of standard RNA transcription reactions were performed using T7 polymerase spiked with 0 mM, 0.1 mM, 1 mM, and 10 mM VRC. Post-incubation, the contents of each reaction were electrophoresed on a gel to qualitatively identify reaction product sizes.

T7 RNA polymerase [2] = biological target: T2, T7 RNA polymerase; assay: RNA yield after post-reaction clean-up, T7 polymerase transcription (NanoDrop UV-Vis); settings: 37° C., 4 hours, FIG. 2
Method: Methods: A series of standard RNA transcription reactions were performed using T7 polymerase spiked with 0 mM, 0.1 mM, 1 mM, and 10 mM VRC. The reaction was performed at 37° C. for 4 hours in a thermocycler. A post-reaction clean-up was used to remove any reagents, including enzymes, NTPs, buffers. The reaction was quantified using a NanoDrop UV-Vis spectrometer.

T7 RNA polymerase [3] = biological target: T2, T7 RNA polymerase; assay: Real-time RNA transcription reaction with T7 polymerase (fluorescence, TECAN plate reader); settings: 10 mM VRC, room temperature (~20° C.), 9000 seconds, FIG. 1A
Method: Methods: A series of standard RNA transcription reactions were performed using T7 polymerase spiked with 0 mM, 0.1 mM, 1 mM, and 10 mM VRC. The reaction was performed at room temperature (˜20° C.) for 9000 seconds in a TECAN plate reader. Reaction yield was measured in reach reaction by measuring fluorescence in real-time using the TECAN plate reader.

With ribonucleoside vanadyl complex [VRC] the “RNA yield versus 0 mM control” value (SP6 RNA polymerase; 0.1 mM VRC) was “no advantage in yield over the control”, the “RNA yield versus 0 mM control” value (SP6 RNA polymerase; 1 mM VRC) was “inhibition of SP6 RNA polymerase” and the “RNA yield versus 0 mM control” value (SP6 RNA polymerase; 10 mM VRC) was “inhibition of SP6 RNA polymerase”. For the same substance, the “reaction product sizes / degradation products on gel” value (T7 RNA polymerase [1]) was “no degradation of products; also recorded: no discernable differences in product sizes”, the “increase in RNA yield over 0 mM control” value (T7 RNA polymerase [2]; 0.1 mM VRC) was “approximately 2.3 fold” and the “increase in RNA yield over 0 mM control” value (T7 RNA polymerase [2]; 1 mM VRC) was “approximately 1.7 fold”. For the same substance, the “increase in RNA yield over 0 mM control” value (T7 RNA polymerase [2]; 10 mM VRC) was “approximately 1.5 fold” and the “increase in RNA yield over 0 mM control” value (T7 RNA polymerase [3]) was about 1.5 fold.
